This is an account of results in patent US6730792B2, “β3 adrenergic agonists” (Eli Lilly and Company, priority 2000, dated 2004).

For one assay, the target named is T1, human β3 adrenergic receptor (Homo sapiens, UniProt P13945).
T1 construct: expressed in transfected cells; host or cells: DXB-11 Chinese hamster ovary (CHO) cell line, stably transfected (phd expression vector)
T1 sequence (P13945 whole entry): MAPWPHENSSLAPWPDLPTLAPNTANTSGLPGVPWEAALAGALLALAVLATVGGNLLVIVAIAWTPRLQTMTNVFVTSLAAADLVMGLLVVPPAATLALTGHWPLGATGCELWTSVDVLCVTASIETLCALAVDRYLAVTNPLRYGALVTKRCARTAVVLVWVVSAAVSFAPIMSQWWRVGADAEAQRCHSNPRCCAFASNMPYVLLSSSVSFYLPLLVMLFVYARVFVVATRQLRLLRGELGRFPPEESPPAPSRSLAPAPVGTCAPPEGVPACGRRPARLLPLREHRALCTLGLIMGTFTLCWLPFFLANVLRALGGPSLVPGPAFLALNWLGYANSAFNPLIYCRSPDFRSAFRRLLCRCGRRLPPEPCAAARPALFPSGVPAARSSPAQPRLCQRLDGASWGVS
The assay can be described thus: whole cell receptor coupled c-AMP assay, human β3 receptor in CHO cells (EC50, Emax relative to isoproterenol). Type of assay: cell-based. The note with it: % intrinsic activity relative to isoproterenol maximal response; average of at least 3 runs; c-AMP in transfected CHO cells. In a few lines: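 Stably transfected DXB-11 CHO cells (20,000/well) were exposed to compound for 20 min at 37 °C in HBSS/HEPES buffer with 1 mM IBMX, pH 7.4. cAMP was measured by SPA. EC50 came from a four-parameter logistic fit, and Emax is the maximal response as a percentage of isoproterenol's.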
Take `CC(=O)c1ccc(-c2ccccc2OC[C@@H](O)CNC(C)(C)Cc2ccc(Oc3ncccc3C(N)=O)cc2)s1.O=C(O)C(F)(F)F` [Example 419]: the “Emax (%) ± SEM” value was determined as 87.5 ± 1.8%.

With `CC(C)(Cc1ccc(Oc2ccc(S(C)(=O)=O)cc2)cc1)NC[C@H](O)COc1ccccc1-c1ccco1.Cl` [Example 395], the “Emax (%) ± SEM” value worked out at 46.6 ± 5.9%. Still for that read-out and setting: for `CC(C)(Cc1ccc(Oc2ccc(S(C)(=O)=O)cc2)cc1)NC[C@H](O)COc1ccccc1-c1cccs1.Cl` [Example 383] the value was 52.1 ± 5.4%. As to `CC(C)(Cc1ccc(Oc2ncccc2C(N)=O)cc1)NC[C@H](O)COc1ccccc1-c1ccsc1.Cl` [Example 446], the “Emax (%) ± SEM” value is 64.0 ± 6.0%.

Still in this assay, the particulars now being: Emax ± SEM; average of at least 3 runs except as otherwise indicated; tested as the isolated form listed.
On to `CC(C)(Cc1ccc(Oc2ccccc2C(N)=O)cc1)NC[C@H](O)COc1ccccc1-c1ncco1.O=C(O)C(F)(F)F` [Example 365], for which the “Emax (%) ± SEM” value stood at 80.2 ± 5.6%.

Staying with this assay, now noted: Emax ± standard error of the mean; average of at least 3 runs except where n = 1; compound tested in the isolated form listed.
Consider `CC(C)(Cc1ccc(Oc2ncccc2C(N)=O)cc1)NC[C@H](O)COc1ccccc1-c1csnn1.O=C(O)C(=O)O` [Example 98], for which the “Emax (%) ± SEM” value came to 39.2 ± 4.0%. Take `Cn1nccc1-c1ccccc1OC[C@@H](O)CNC(C)(C)Cc1ccc(Oc2ccc(C(N)=O)cn2)cc1` [Example 14]: the “Emax (%) ± SEM” value is recorded as 16.9 n = 1%. For the compound `Cn1ccc(-c2ccccc2OC[C@@H](O)CNC(C)(C)Cc2ccc(Oc3ccc(S(C)(=O)=O)cc3)cc2)n1` [Example 128], the “Emax (%) ± SEM” value is listed as 40.6 n = 1%. As to `CC(C)(Cc1ccc(Oc2ncccc2C(N)=O)cc1)NC[C@H](O)COc1ccccc1N1CCCC1` [Example 84], the “Emax (%) ± SEM” value is 72.1 ± 6.2%.
